Assay results published in patent US20240216317A1, “COMPOSITION FOR PREVENTING, AMELIORATING OR TREATING INFLAMMATORY BOWEL DISEASE COMPRISING COMPOUND ISOLATED FROM ISODON EXCISUS AS EFFECTIVE COMPONENT” (HEALINNOLS INC., priority 2022, published 2024).

System: IL-1β
Experiment: IL-1β mRNA expression (qPCR) in zebra fish animal model of DSS-induced inflammatory bowel disease
Format: in vivo, zebra fish (Danio rerio: AB)
Details: zebra fish larvae, 0.5% DSS, 5 hours treatment; Chemical formula 1 0.3 μM and 1 μM; FIG. 5
Description: As a zebra fish animal model of inflammatory bowel disease, wild-type zebra fish (Danio rerio: AB) was used, which was kept in an exclusive breeding facility at conditions including light/dark cycle of 14 hours/10 hours and temperature of 28° C. All the animal experiments were carried out according to the protocol of Ethics Committee for Animal Expectation, Healinno-LS (Registration No.: AEC-20210720-0001), and all the materials were sterilized first before they are used for experiment.
According to a treatment with 0.5% DSS (dextran sulfate sodium, M.W. 36,000-50,000, #160110, MP), which induces “ulcerative colitis” as inflammatory bowel disease by creating a damage in colonic epithelial cells, a zebra fish was induced to have inflammatory bowel disease. Then, by threating the zebra fish with the compound represented by Chemical formula 1 of the present invention at different concentrations (0.3 μM and 1 μM), inhibitory activity on inflammatory bowel disease was examined. […]
The zebra fish larvae which have been treated with the compound represented by Chemical formula 1 of the present invention were then added with TRIzol reagent (300 μl), and then homogenized by using a tissue homogenizer (G20, GINKO). […] Purity and concentration were measured by using a microplate reader (FLUOstar omega, BMG Labtech), and the extracted total RNA was kept at −80° C. […]

SMILES | expression amount of IL-1β compared to DSS model group
COC(=O)C[C@H](OC(=O)/C=C/c1ccc(O)c(O)c1)c1ccc(O)c(O)c1 [Compound 1, 3-[3,4-dihydroxyphenyl]acrylic acid 1-[3,4-dihydroxyphenyl]-2-methoxycarbonylethyl ester] | statistically significantly lower
Nc1ccc(O)c(C(=O)O)c1 [Compound 5-ASA, 5-aminosalicylic acid, reference compound] | statistically significantly lower
